Tests used:
[1] = in particular in solution; contact with light; cited from earlier work
[2] = system: touch-sensitive tendrils of Bryonia dioica; experiment: Tendril coiling of Bryonia dioica shoots; type: in vivo; parameters: key to tendril coiling at 500 μm concentration / tendril coiling 100 μm concentration / tendril coiling 10 μm concentration: −: no coiling; +: minor coiling; ++: Considerable coiling; +++: intense coiling; conditions: for tendril coiling 10 μm concentration / tendril coiling 100 μm concentration / tendril coiling at 500 μm concentration: followed over 20 h
Protocol: Tendril coiling: To test the ability of the conjugates to induce tendril coiling, shoots of Bryonia dioica with the youngest, most well-developed tendrils were cut and immediately placed into vials with the test solution (2 ml) with the indanoyl conjugates (5-1000 μM) or coronatine (5-100 μM) and the extent of coiling was followed over a period of 20 h. The efficacy of the compounds as to their ability to induce tendril coiling was evaluated by the experimentator accordihg to the following scale: […]

[3] = system: internal level of salicylic acid in plants; experiment: Internal level of salicylic acid in pre-treated plants; type: in vivo; conditions: plants pre-treated with the compound
[4] = system: Lima bean Phaseolus lunatus; experiment: Induction of volatile emission in cut Lima bean plantlets (headspace collection, GC-MS); type: in vivo; conditions: for induction of C16 terpenoid TMTT emission / induction of methyl salicylate emission: volatile blend, FIG. 2
Protocol: Plant material: Induction experiments were performed with plantlets of the Lima bean Phaseolus lunatus (Ferry Morse cv. Jackson Wonder Bush). Individual plants were grown from seed in a plastic pot (Ø=5.5 cm) at 23° C. and 80% humidity using daylight fluorescent tubes at ca. 270 μE m^2 st^−1 with a photophase of 14 h. Experiments were conducted with 12-16 day-old seedlings showing two fully developed leaves.
Induction experiments: Plantlets of P. lunatus with two fully developed primary leaves were cut with razor blades and immediately transferred into Eppendorf vials containing a solution of the test-substance in tap water (100 μl). Solutions of the unsubstituted prior art compound indanoyl-L-isoleucine and of 6 -ethyl indanoyl-L-isoleucine methyl ester according to the invention were applied at 10, 100 and 1000 μM. Coronatne was used as a 100 μM aqueous solution. After uptake of the solution, the plantlets were placed into vials with tap water (5 ml) and were enclosed in small desiccators (750 ml) and maintained at 25° C. for 24 h. Control experiments were conducted under identical conditions by placing freshly cut plantlets into tap water. All experiments were carried out in triplicate.
Collection and analysis of headspace volatiles: The volatiles emitted from the pre-treated plants were collected continuously on small charcoal traps (1 mg charcoal, CLSA-Filter, Le Ruisseau de Montbrun, F-09350 Daumazan sur Arize, France) over a period of 24 h using air circulation as described in J. Donath and W. Boland, Phytochemistry 1995, 39, 785-790.
After desorption of the volatiles from the carbon trap with 40 μl of a solution of 1-bromodecane (internal standard, 50 μM) in dichloromethane. The extracts were directly analysed by GC/MS. GC-conditions: Fused-silica capillary (30 m×0.25 mm) coated with DB 5 (0.25 μm). Helium at […] served as carrier gas. Separation of the compounds was achieved under programmed conditions (50° C. for 2 min, then at 10° C. min^−1 to 200° C., finally at 35° C. min^−1 to 280° C.). MS: Finnigan GCQ; GC-interface at 265° C.; scan range 35-450 Da. Individual compounds (peak area) were quantified with respect to the peak area of the internal standard.

In the case of “6-azido-1-oxo-indanoyl isoleucine derivative”, the stability [1] is listed as “unstable”.
In the case of `CC[C@H](C)[C@H](NC(=O)c1cccc2c1CCC2=O)C(=O)OC` [1-oxo-indanoyl isoleucine methyl ester, 1-oxo-indanoyl-isoleucine methyl ester], the “tendril coiling 10 μm concentration” value [2] is reported as “−”, the “tendril coiling 100 μm concentration” value [2] is reported as “+” and the “tendril coiling at 500 μm concentration” value [2] is reported as “++”. The “concentration necessary to induce a coiling response” value ([2]; tendrils of Bryonia dioica) was “about 1 mM”.
For `CCc1cc2c(c(C(=O)NC(C(=O)OC)C(C)CC)c1)CCC2=O` (stereo not drawn) [2-[(6-Ethyl-1-oxo-indane-4-carbonyl)-amino]-3-methyl-pentanoic acid methyl ester], the “tendril coiling 10 μm concentration” value [2] was “+”, the “tendril coiling 100 μm concentration” value [2] was “+++” and the “tendril coiling at 500 μm concentration” value [2] was “+++”. For the same compound, the “concentration inducing the coiling reaction (threshold concentration)” value ([2]; tendrils of Bryonia dioica) was 20 µM, the “increase of salicylate (internal level of salicylic acid)” value [3] was 8 fold and the “up-regulation of biosynthesis of 4,8-dimethyl-nona-1,3,7-triene (DMNT)” value ([4]; compared with the unsubstituted prior art compound) was “much more pronounced”. For the same compound, the threshold concentration ([4]; induction of volatiles) was “less than 10 μM”, the “induction of C16 terpenoid TMTT emission” value [4] was “induced” and the “induction of methyl salicylate emission” value [4] was “induced”. The “fold more active than the prior art compound unsubstituted at the 6-position” value ([4]; volatile induction, relative to 1-oxo-indanoyl-isoleucine methyl ester) was 30-50 fold.
With `CCC1CC1(NC(=O)C1=C[C@H](CC)C[C@@H]2C(=O)CC[C@H]12)C(=O)O` (stereo partly drawn) [coronatine] the “tendril coiling 10 μm concentration” value [2] was “++”, the “tendril coiling 100 μm concentration” value [2] was “+++” and the “tendril coiling at 500 μm concentration” value [2] was “+++”. The “concentration inducing the coiling reaction (threshold concentration)” value ([2]; tendrils of Bryonia dioica) was “about 2 μM”, the “induction of C16 terpenoid TMTT emission” value [4] was “induced” and the “induction of methyl salicylate emission” value [4] was “induced”.

From patent publication US20040087655A1, “6-Substituted indanoyl amino acid conjugates as mimics to the biological activity of coronatine” (priority 2001, published 2004)
